Test results taken from patent publication US12630497B2, “Compound having malate dehydrogenase inhibitory activity and pharmaceutical composition for preventing or treating cancer comprising same as active ingredient” (DONGGUK UNIVERSITY INDUSTRY-ACADEMIC COOPERATION FOUNDATION, priority 2017, dated 2026).

What was measured:
MDH1 = biological target: T1, MDH1 (Homo sapiens, UniProt P40925); test: MDH1 inhibitory activity (in vitro, NADH oxidation, absorbance 340 nm); format: biochemical; set-up: purchased Biovision; conditions: 0.25 nM MDH1 recombinant protein, 200 μM oxaloacetate, 30 minutes
T1 sequence (P40925 1-334): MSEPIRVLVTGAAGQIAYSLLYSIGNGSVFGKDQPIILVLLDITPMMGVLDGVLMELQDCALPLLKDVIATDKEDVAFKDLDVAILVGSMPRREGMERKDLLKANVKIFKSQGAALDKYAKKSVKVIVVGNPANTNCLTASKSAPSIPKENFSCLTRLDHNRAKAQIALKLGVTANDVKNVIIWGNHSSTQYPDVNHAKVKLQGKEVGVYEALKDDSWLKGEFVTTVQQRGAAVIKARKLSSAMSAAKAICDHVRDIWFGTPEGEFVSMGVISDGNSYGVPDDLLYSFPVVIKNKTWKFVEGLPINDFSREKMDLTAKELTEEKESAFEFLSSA
Experimental: The inhibitory activity of the prepared compounds against MDH1 recombinant protein and the MDH2 recombinant proteins prepared in each of Experimental Examples 1-1, 1-2, 1-3 and 1-4 was measured. More specifically, 0.25 nM MDH1 recombinant protein (Biovision) or MDH2 recombinant protein was added to 200 μM oxaloacetate, nicotinamide adenine dinucleotide (NADH), the compound prepared in Example 1 and an MDH assay buffer (100 mM potassium phosphate, pH 7.4) to allow a reaction for 30 minutes. Afterward, a change in NADH concentration in the solution due to NADH oxidation (NAD^+) by an MDH1 or MDH2 enzyme was analyzed by measuring absorbance at 340 nm.

HCT-116 cells = test: Mitochondrial oxygen consumption rate (XF24 extracellular flux analyzer); format: cell-based
Experimental: More specifically, a mitochondrial oxygen consumption rate (OCR) was measured using a XF24 extracellular flux analyzer (Seahorse Bioscience). HCT-116 cells (1×10^5 cells) were cultured in a culture plate (XF24 cell culture plate) for 24 hours, the culture medium was exchanged with a XF assay medium, and then the cells were incubated in a carbon dioxide-free cell incubator for 1 hour. After the mitochondrial oxygen consumption rate was measured three times in drug-free cells, oxygen consumption rates were measured three times after the administration of oligomycin (1 μM), which is an ATP synthesis inhibitor, three times after the administration of carbonyl cyanide p-trifluoromethoxyphenylhydrazone (0.5 μM), which is a chemical uncoupler, and three times after the administration of rotenone (1 μM) and antimycin A (1 μM), which are electron transport chain inhibitors.

A549 = test: Cell proliferation inhibition (methylene blue); format: cell-based
From the text: (§1) Cell lines used in the experiment are lung cancer cell lines A549 and H1703, colorectal cancer cell lines HCT116 and HT29, liver cancer cell lines Hep3B and HepG2, gastric or stomach cancer cell lines NUGC-3 and AGS, kidney and renal cancer cell lines 786-O and Caki-1, breast cancer cell lines MCF-7 and MDA-MB-231, a prostate cancer cell line PC3, a pancreatic cancer cell line MIA-PaCa-2, a cervical cancer cell line HeLa, and normal cell lines WI-38 and CCD-32Lu. Specifically, each of the cell lines was suspended in DMEM containing 5% FBS, transferred to a 96-well plate (3×10^3 cells/well), and cultured in a 37 □ cell incubator maintaining 5% carbon dioxide for 24 hours. […] Afterward, a change in the concentration of methylene blue extracted with a 0.5% aqueous hydrochloric acid solution was analyzed by measuring absorbance at 600 nm.

NUGC-3 = test: Cell proliferation inhibition (methylene blue); format: cell-based; conditions: Homo sapiens; NUGC-3 gastric or stomach cancer cell line, 72 hours; read-out: Viability GI50
From the text: as §1

Hep3B = test: Cell proliferation inhibition (methylene blue); format: cell-based; conditions: Homo sapiens; Hep3B liver cancer cell line, 72 hours; read-out: Viability GI50
From the text: as §1

HT29 = test: Cell proliferation inhibition (methylene blue); format: cell-based; conditions: Homo sapiens, HT-29; HT29 colorectal cancer cell line, 72 hours; read-out: Viability GI50
From the text: as §1

HeLa = test: Cell proliferation inhibition (methylene blue); format: cell-based; conditions: Homo sapiens; HeLa cervical cancer cell line, 72 hours; read-out: Viability GI50
From the text: as §1

AGS = test: Cell proliferation inhibition (methylene blue); format: cell-based; conditions: Homo sapiens; AGS gastric or stomach cancer cell line, 72 hours; read-out: Viability GI50
From the text: as §1

WI-38 = test: Cell proliferation inhibition (methylene blue); format: cell-based
From the text: as §1

MDA-MB-231 = test: Cell proliferation inhibition (methylene blue); format: cell-based; conditions: Homo sapiens; MDA-MB-231 breast cancer cell line, 72 hours; read-out: Viability GI50
From the text: as §1

HCT116 = test: Cell proliferation inhibition (methylene blue); format: cell-based
From the text: as §1

786-O = test: Cell proliferation inhibition (methylene blue); format: cell-based; conditions: Homo sapiens, 786-0; 786-O kidney and renal cancer cell line, 72 hours; read-out: Viability GI50
From the text: as §1

Caki-1 = test: Cell proliferation inhibition (methylene blue); format: cell-based; conditions: Homo sapiens; Caki-1 kidney and renal cancer cell line, 72 hours; read-out: Viability GI50
From the text: as §1

MIA PaCa-2 = test: Cell proliferation inhibition (methylene blue); format: cell-based; conditions: Homo sapiens; MIA PaCa-2 pancreatic cancer cell line, 72 hours; read-out: Viability GI50
From the text: as §1

MCF-7 = test: Cell proliferation inhibition (methylene blue); format: cell-based; conditions: Homo sapiens, MCF7; MCF-7 breast cancer cell line, 72 hours; read-out: Viability GI50
From the text: as §1

PC3 = test: Cell proliferation inhibition (methylene blue); format: cell-based; conditions: Homo sapiens, PC-3; PC3 prostate cancer cell line, 72 hours; read-out: Viability GI50
From the text: as §1

CCD-32Lu = test: Cell proliferation inhibition (methylene blue); format: cell-based
From the text: as §1

HepG2 = test: Cell proliferation inhibition (methylene blue); format: cell-based
From the text: as §1

H1703 = test: Cell proliferation inhibition (methylene blue); format: cell-based; conditions: Homo sapiens, NCI-H1703; H1703 lung cancer cell line, 72 hours; read-out: Viability GI50
From the text: as §1

COC(=O)c1cccc(NC(=O)CCOc2ccc(C(C)(C)CC(C)(C)C)cc2)c1 [Compound 9-2, Methyl 3-(3-(4-(2,4,4-trimethylpentan-2-yl)phenoxy)propanamido)benzoate]
IC50 (MDH1): 1000 to 5000 nM | basal respiration rate (HCT-116 cells): decrease in a concentration-dependent manner | maximum respiration rate (HCT-116 cells): decrease in a concentration-dependent manner | mitochondrial oxygen consumption rate (HCT-116 cells): inhibited a mitochondrial oxygen consumption rate | inhibitory effect on proliferation (A549; A549 cells): strong inhibitory effect | GI50 (A549; Homo sapiens, A549 lung cancer cell line, 72 hours, read-out: Viability GI50): 1000 to 5000 nM | GI50 (NUGC-3): 5 to 10 µM | GI50 (Hep3B): 10 to 20 µM | GI50 (HT29): 5 to 10 µM | GI50 (HeLa): 10 to 20 µM | GI50 (AGS): 10 to 20 µM | GI50 (WI-38; Homo sapiens, WI-38 normal cell line, 72 hours, read-out: Viability GI50): > 20 µM | effect on proliferation of normal cell lines (WI-38; WI-38, within concentration range in which proliferation of cancer cells is inhibited): no effect on the proliferation of normal cell lines | GI50 (MDA-MB-231): 10 to 20 µM | inhibitory effect on proliferation (HCT116; HCT116 cells): strong inhibitory effect | GI50 (HCT116; Homo sapiens, HCT-116, HCT116 colorectal cancer cell line, 72 hours, read-out: Viability GI50): 1000 to 5000 nM | GI50 (786-O): 10 to 20 µM | GI50 (Caki-1): 10 to 20 µM | GI50 (MIA PaCa-2): 5 to 10 µM | GI50 (MCF-7): 10 to 20 µM | GI50 (PC3): 10 to 20 µM | GI50 (CCD-32Lu; CCD-32Lu normal cell line, 72 hours, read-out: Viability GI50): > 20 µM | effect on proliferation of normal cell lines (CCD-32Lu; CCD-32Lu, within concentration range in which proliferation of cancer cells is inhibited): no effect on the proliferation of normal cell lines | inhibitory effect on proliferation (HepG2; HepG2 cells): strong inhibitory effect | GI50 (HepG2; Homo sapiens, HepG2 liver cancer cell line, 72 hours, read-out: Viability GI50): 1000 to 5000 nM | GI50 (H1703): 5 to 10 µM
